According to ChEMBL document CHEMBL4392840, “Further sesquiterpenoids from the rhizomes of Homalomena occulta and their anti-inflammatory activity” (Bioorg Med Chem Lett, 2019):
Activity calls are given as the source filed them. No cut-off for these calls is given here.

Tests used:
Assay type in all cases: functional, cell-based
RAW264.7 [1] = assay: Antiinflammatory activity in mouse RAW264.7 cells assessed as inhibition of LPS-induced COX2 mRNA expression preincubated for 30 mins followed by LPS-stimulation and measured after 18 hrs by QuantiFast SYBR Green dye based RT-PCR analysis
RAW264.7 [2] = assay: Antiinflammatory activity in mouse RAW264.7 cells assessed as inhibition of LPS-induced COX2 mRNA expression at 10 uM preincubated for 30 mins followed by LPS-stimulation and measured after 18 hrs by QuantiFast SYBR Green dye based RT-PCR analysis
RAW264.7 [3] = assay: Antiinflammatory activity in mouse RAW264.7 cells assessed as inhibition of LPS-induced COX2 expression at 1 to 10 uM preincubated for 30 mins followed by LPS-stimulation and measured after 18 hrs by Western blot analysis
RAW264.7 [4] = assay: Antiinflammatory activity in mouse RAW264.7 cells assessed as inhibition of LPS-induced COX2 mRNA expression at 50 uM preincubated for 30 mins followed by LPS-stimulation and measured after 18 hrs by QuantiFast SYBR Green dye based RT-PCR analysis
RAW264.7 [5] = assay: Antiinflammatory activity in mouse RAW264.7 cells assessed as inhibition of LPS-induced PGE2 formation preincubated for 30 mins followed by LPS-stimulation and measured after 18 hrs by ELISA

| SMILES | inhibition (RAW264.7 [1]) | inhibition (RAW264.7 [2]) | inhibition (RAW264.7 [3]) | inhibition (RAW264.7 [4]) | inhibition (RAW264.7 [5]) |
| --- | --- | --- | --- | --- | --- |
| CC1(C)[C@H]2[C@H]3[C@@H](CC[C@]3(C)O)[C@](C)(O)CC[C@H]21 | Dose-dependent effect | Active | Active | – | – |
| Cc1cnc(NC(=O)C2=C(O)c3ccccc3S(=O)(=O)N2C)s1 | – | – | – | Active | – |
| CC(C)[C@@H](O)[C@H]1CC[C@@]2(C)[C@@H]1[C@]1(C)CC[C@H]2O1 | Dose-dependent effect | Active | Active | – | Dose-dependent effect |
| C[C@@H]1CC[C@H]2[C@@H]1[C@H]1[C@@H](CC[C@@]2(C)O)C1(C)C | Dose-dependent effect | Active | Active | – | – |
